Literature values as cited in paper PMC5228037, “Discovery and Mechanistic Characterization of Selective Inhibitors of H2S-producing Enzyme: 3-Mercaptopyruvate Sulfurtransferase (3MST) Targeting Active-site Cysteine Persulfide” (Scientific Reports, 2017).

Columns and labels:
3MST = conditions: cited from earlier work; for Inhibition constant Ki for 3MST: substrate-like inhibitors
[1] = design: method as in PMID 26269587; conditions: cited from earlier work

SMILES	Inhibition constant Ki for 3MST (3MST)	other results
O=C(O)CCS [3-mercaptopropionic acid]	several	–
O=C(O)C(=O)CS [3MP, 3-mercaptopyruvate]	–	Km (3MST; substrate, read-out: Michaelis constant Km for 3MST): 4.08 mM
N[C@@H](CSS)C(=O)O [cysteine persulfide]	–	calculated pKa [1]: 4.34
CC(=O)C(=O)O [pyruvate]	several	–
